Results on 26 compounds are retold here after ChEMBL document CHEMBL4483862, “Open-source discovery of chemical leads for next-generation chemoprotective antimalarials” (2018).

As a reminder, the pIC50 is the negative decadic logarithm of the IC50, by convention in mol/L. Usually IC90 stands for the concentration at which the effect reaches the 90% level.

For the assay, the system named is Plasmodium berghei. Briefly: Luciferase/luciferin-expressing antifolate-resistant parasites were used to infect a culture of HepG2 cells that were pre-incubated with compounds. Infected hepatocytes emit light due to the luciferase reaction. Assay results are presented as the percent inhibition of light emission compared to control. […]. It counts as functional. The note with it: sporozoite; for IC90: read-out: LUCIFERASE INFECTION ASSAY - IC90.

Where [1] appears, read: read-out: LUCIFERASE INFECTION ASSAY - IC50.

pIC50: −log10 of the molar value.

On to `CC(=O)c1c(C)[nH]c(C(=O)OCC(=O)Nc2c(C)nn(-c3ccccc3)c2C)c1C`, for which the IC90 is above 10 µM. Also, the pIC50 (PBLUC_HILL_SLOPE 2.08, PBLUC_R_SQUARED 0.0451, read-out: LUCIFERASE INFECTION ASSAY - IC50) was below 5.00.
As for `Cc1ccc(-c2nc3c(c(SCCN4CCCC4)n2)COC(C)(C)C3)cc1`, the IC90 was above 8.6 µM. The pIC50 (PBLUC_HILL_SLOPE 2.75, PBLUC_R_SQUARED 0.0927, read-out: LUCIFERASE INFECTION ASSAY - IC50) is 5.15.
On to `N#CCCn1cc(/C=N/Nc2nc3ccccc3s2)c(-c2ccc(F)cc2)n1`, for which the IC90 was above 10 µM. Under setting [1], the pIC50 is below 5.00.
On to `Cc1ccc(N2C(=N)C(c3nc4ccccc4s3)C(c3ccccc3)C2=O)cc1` (configuration not stated), for which the IC90 was above 10 µM. Besides, where the note is “FFLUC_HILL_SLOPE 38.3, FFLUC_R_SQUARED 0.217, HEPG2TOX_HILL_SLOPE 0.75, HEPG2TOX_R_SQUARED 0.479, read-out: LUCIFERASE INFECTION ASSAY - IC50”, the pIC50 is below 5.00.
`CCOC(=O)NC(=O)COC(=O)CCc1ccc(OC)cc1`: the IC90 was above 10 µM. Further, the pIC50 under setting [1] is below 5.00.
For `CN(C)C(C(=O)c1ccccc1)C(c1ccc(F)cc1)c1ccc(F)cc1` (configuration not stated) the same measures were above 10 µM and below 5.00.
For `CCCn1nc(C(=O)N2CCCc3ccccc32)c2ccccc2c1=O`, the IC90 is above 10 µM. Under setting [1], the pIC50 is below 5.00.
Consider `COc1cc(-c2cc(-c3ccc(F)c(Cl)c3)cnc2N)ccc1O`, for which the IC90 is above 9.57 µM. Moreover, the negative-log IC50 (pIC50) (PBLUC_HILL_SLOPE 11.9, PBLUC_R_SQUARED 0.433, read-out: LUCIFERASE INFECTION ASSAY - IC50) is 5.06.
Turning to `Cc1ccc(C2Nc3ccccc3C(=O)N2C(C)c2ccccc2)o1` (configuration not stated), the concentration for an effect of 90% (IC90) was above 10 µM. The pIC50 under setting [1] is below 5.00.
In the case of `COc1cc(/C=C(\C#N)c2ccc(C)cc2)cc(OC)c1OC`, the IC90 worked out at 4.54 µM. Besides, for the setting “HEPG2TOX_HILL_SLOPE 1.64, HEPG2TOX_R_SQUARED 0.962, PBLUC_HILL_SLOPE 4.59, PBLUC_R_SQUARED 0.528, read-out: LUCIFERASE INFECTION ASSAY - IC50”, the pIC50 is 5.55.
For `Cc1nn2c(nc(NCc3ccc(Cn4ccnc4)cc3)c3ccccc32)c1Cl`, the IC90 was above 10 µM. For the same compound, the pIC50 (FFLUC_HILL_SLOPE 16.1, FFLUC_R_SQUARED 0.458, read-out: LUCIFERASE INFECTION ASSAY - IC50) is below 5.00.
With `CCc1ccc(/C=C/c2ccc3cccc(O)c3n2)cc1`, the IC90 came to 0.313 µM. Also, the pIC50 (FFLUC_HILL_SLOPE 27.9, FFLUC_R_SQUARED 0.597, HEPG2TOX_HILL_SLOPE 1.09, HEPG2TOX_R_SQUARED 0.82, PBLUC_HILL_SLOPE 3.2, PBLUC_R_SQUARED 0.533, read-out: LUCIFERASE INFECTION ASSAY - IC50) is 6.80.
Turning to `Cn1c(NCc2ccccc2)nc2cnc(Nc3ccc(F)cc3)cc21`, the IC90 was above 10 µM. Also, the pIC50 under setting [1] was below 5.00.
Consider `CC(C)(C)C(=O)/C=c1\[nH]c(=O)/c(=C\c2ccc(-c3ccc(S(=O)(=O)N4CCOCC4)cc3)o2)s1`, for which the IC90 is above 10 µM. Moreover, the pIC50 (FFLUC_HILL_SLOPE 2, FFLUC_R_SQUARED 0.892, read-out: LUCIFERASE INFECTION ASSAY - IC50) is below 5.00.
`CCc1ccccc1Nc1nc(N)nc(CN2CCc3ccccc32)n1`: the IC90 is above 10 µM. The pIC50 (PBLUC_HILL_SLOPE 1.23, PBLUC_R_SQUARED 0.247, read-out: LUCIFERASE INFECTION ASSAY - IC50) is 5.27.
With `O=C(c1cnc2ccc3ccccc3c2c1)c1cc(F)ccc1O`, the IC90 is above 10 µM. For the same compound, under “HEPG2TOX_HILL_SLOPE 3.61, HEPG2TOX_R_SQUARED 0.979, PBLUC_HILL_SLOPE 3.48, PBLUC_R_SQUARED 0.782, read-out: LUCIFERASE INFECTION ASSAY - IC50”, the pIC50 was 5.27.
For the compound `C=CCn1c(C)cc(C(=O)CSc2nc3ccccc3s2)c1C`, the IC90 stood at 0.221 µM. Under “PBLUC_HILL_SLOPE 3.3, PBLUC_R_SQUARED 0.342, read-out: LUCIFERASE INFECTION ASSAY - IC50”, the negative-log IC50 (pIC50) was 6.95.
On to `N#C/C(=N\Nc1cc(C(F)(F)F)cc(C(F)(F)F)c1)S(=O)(=O)c1ccc(Cl)cc1`, for which the IC90 worked out at 1.73 µM. In addition, the pIC50 (FFLUC_HILL_SLOPE 2.02, FFLUC_R_SQUARED 0.178, HEPG2TOX_HILL_SLOPE 2.35, HEPG2TOX_R_SQUARED 0.941, PBLUC_HILL_SLOPE 1.74, PBLUC_R_SQUARED 0.757, read-out: LUCIFERASE INFECTION ASSAY - IC50) is 6.31.
With `FC(F)(F)c1cccc(-c2ccc3ncc(-c4cccnc4)n3n2)c1`, the IC90 was 2.23 µM. Moreover, where the note is “HEPG2TOX_HILL_SLOPE 12.4, HEPG2TOX_R_SQUARED 0.643, PBLUC_HILL_SLOPE 4.46, PBLUC_R_SQUARED 0.619, read-out: LUCIFERASE INFECTION ASSAY - IC50”, the pIC50 was 5.87.
Turning to `OC[C@H]1O[C@@H](c2nc(-c3nc(-c4ccc5c(c4)OCO5)no3)cs2)C[C@@H]1O`, the IC90 stood at 2.15 µM. Also, for the setting “PBLUC_HILL_SLOPE 1.28, PBLUC_R_SQUARED 0.808, read-out: LUCIFERASE INFECTION ASSAY - IC50”, the pIC50 was 6.41.
Turning to `COc1ccc(NC(=O)c2cccc3c[nH]nc23)cc1Cc1ccccc1`, the IC90 is 9.56 µM. For the same compound, the pIC50 (PBLUC_HILL_SLOPE 1.42, PBLUC_R_SQUARED 0.679, read-out: LUCIFERASE INFECTION ASSAY - IC50) was 5.69.
Turning to `CCCOc1ccc(/C=C/C(=O)Nc2ccc(Br)c(C(F)(F)F)c2)cc1OCC`, the IC90 was above 10 µM. Where the note is “FFLUC_HILL_SLOPE 178, FFLUC_R_SQUARED 0.15, HEPG2TOX_HILL_SLOPE 0.174, HEPG2TOX_R_SQUARED 0.586, PBLUC_HILL_SLOPE 2.73, PBLUC_R_SQUARED 0.361, read-out: LUCIFERASE INFECTION ASSAY - IC50”, the pIC50 was 5.10.
For the compound `O=C(Nc1ccc(Cl)c(Cl)c1)Nc1c(-c2ccccc2)nc2ccccn12`, the IC90 was 4.52 µM. The pIC50 (HEPG2TOX_HILL_SLOPE 7.35, HEPG2TOX_R_SQUARED 0.457, PBLUC_HILL_SLOPE 10, PBLUC_R_SQUARED 0.727, read-out: LUCIFERASE INFECTION ASSAY - IC50) was 5.44.
For the compound `O=C(Nc1ccccc1C(=O)Nc1nc2ccccc2[nH]1)c1cccs1`, the IC90 is above 10 µM. The pIC50 (HEPG2TOX_HILL_SLOPE 2.23, HEPG2TOX_R_SQUARED 0.95, read-out: LUCIFERASE INFECTION ASSAY - IC50) was below 5.00.
With `NC(Cc1ccc(C(F)(F)F)cc1)c1csc(Nc2cc(Oc3ccccc3)ncn2)n1` (configuration not stated), the IC90 was above 7.21 µM. Besides, for the setting “PBLUC_HILL_SLOPE 3.27, PBLUC_R_SQUARED 0.275, read-out: LUCIFERASE INFECTION ASSAY - IC50”, the negative-log IC50 (pIC50) is 5.37.
For `COc1ccc(-c2cnc3cnc(-c4ccc(N5CCN(C)CC5)cc4)cn23)cc1`, the IC90 was above 8.26 µM. Besides, the pIC50 (PBLUC_HILL_SLOPE 4.21, PBLUC_R_SQUARED 0.0945, read-out: LUCIFERASE INFECTION ASSAY - IC50) was 5.20.
